These results are taken from US10259796B2, “Oxaspiro[2.5]octane derivatives and analogs” (Zafgen, Inc., priority 2011, dated 2019).

Structures are written as SMILES. Like-named read-outs stand apart in the source and are kept apart here. Bounds are passed on as bounds.

Assay [1] concerns the target T1, recombinant human MetAP2 (Homo sapiens, UniProt P50579).
T1 construct: made in house; host or cells: High Five insect cells (Bac-to-Bac baculovirus)
Put plainly: MetAP2 enzyme assay (inhibition of recombinant MetAP2, Met-Gly-Met-Met substrate). It counts as biochemical. The note with it: 50 nM. On the procedure:
Exemplary procedures for expression and purification of MetAP2 are shown in Griffith et al. (PNAS (1998) 95(26):15183-15188). Briefly, recombinant His-tagged human MetAP2 is expressed by using a Bac-to-Bac baculovirus expression system (GIBCO/BRL). Recombinant baculovirus stocks are generated and amplified as per the manufacturer's instructions. Protein is harvested 36 hr after baculovirus infection of two 15-cm plates of High Five cells.
The cell pellet are weighed and lysed (in 5 ml/g of wet pellet) in pre-chilled lysis buffer [buffer B+1% Nonidet P-40/1 mM phenymethylsulfonyl fluoride (PMSF)/2 μg/ml leupeptin/2 μg/ml aprotinin/1 μg/ml pepstatin]. The lysate is incubated on ice for 10 min and centrifuged at 10,000×g for 10 min. […] The Talon resin is pelleted by centrifugation at 1,200×g for 3 min and washed with 4×10 ml of buffer B. During the final wash, the resin is slurried into a Bio-Rad Econo column. The 6×His-tagged MetAP2 is eluted with 6 ml of 50 mM imidazole in buffer B, and 0.5 ml fractions are collected. The amount and purity of recombinant MetAP2 is analyzed by the absorbance at 280 nm and SDS/PAGE (10% gel). The fractions containing the highest amounts of MetAP2 are pooled and dialyzed against 3 liters of buffer B overnight before storage at 4° C.
An enzyme assay is performed in a 96-well format as described in Griffith et al. (PNAS (1998) 95(26):15183-15188). […] To begin the enzymatic reaction, Met-Gly-Met-Met is added to a final concentration of 4 mM and incubated at 37° C. The reaction is quenched after 20 min by adding EDTA to a concentration of 10 mM. Released methionine is quantitated as described in Ben-Bassat et al. (J Bacteriol (1987) 169:751-757).
IC50 values are calculated and compounds herein are determined to be active inhibitors of MetAP2, with some having nanomolar activities.

The nature of assay [2]: Mice weight loss, 7 day, 1 mg/kg/day oral gavage, diet-induced obese mice. The class given is in vivo. The conditions noted are these: Mus musculus, 168 h, read-out: Mice Wt Loss 7 day % WL 1 mpk. An excerpt: Lean body mass is important to normal function in subjects. Substantial loss of lean body mass is not a desirable consequence of a therapy for an overweight or obese subject. A study is undertaken to analyze weight loss with respect to lean body mass.
Mice are divided into two groups, a diet-induced obese group and a lean group (control). For the diet-induced obese group, C57BL/6NTac mice maintained prior to and during the study on a diet containing 60% fat on a kilocalorie basis are further divided into two groups, fifteen mice per group. Average body weight of these diet-induced obese mice is 40 g at the start of the study. For the lean group, fifteen C57BLI6NTac mice are maintained on a diet containing 4.3% by weight fat prior to and during the study. Average body weight of these lean mice is 33 g at the start of the study. Daily food consumption is also recorded.
Compounds of the invention are administered to one of the diet-induced obese mice groups by oral gavage as a solution in 10% DMSO, at dose of 1 mg/kg/day, 7 days. The other diet-induced obese mice group and the lean mice group are not administered anything.

Assay [3] in a line: Cell Based Assay (inhibition range).
Assay [4] is described as follows: Body weight % difference, diet-induced obese mice dosed PO once a day for 10 days with 3 mg/kg. It counts as in vivo. The conditions noted are these: diet-induced obese C57BL/6NTac mice.
Assay [5] addresses T2, MetAP2 enzyme (Mus musculus, UniProt O08663).
T2 construct: from tissue; host or cells: testes of diet-induced obese C57BL/6NTac mice
Put plainly: THX1 N-terminal peptide in mouse testes (MetAP2 inhibition in testes) after 10 days PO 3 mg/kg. It counts as in vivo. The note with it: mice, PO once a day for 10 days, testes taken 24 hours after last dose. On the procedure: Diet-induced obese mice, C57BL/6NTac mice, were dosed PO once a day for 10 days with 3 mg/kg of compound 201 (fumagillin), 202, 203, 231 and 233. On day 11, 24 hours after the last dose the mice are sacrificed and the testes are dissected out and frozen. The frozen testes are subsequently homogenized and subjected to endoproteinase Glu-C digestion. The resulting digest mixture is analyzed by LC-MS/MS to quantitate the level of the N-terminal peptide of thioredoxin (Thrx), amino acid 1-6. Thioredoxin is a selective substrate of the MetAP2 enzyme and the degree of unprocessed thioredoxin (amino acid 1-6 rather than the processed des-Met thioredoxin amino acid 2-6) is indicative of the level of MetAP2 inhibition in a given tissue.

[6] abbreviates: 1 hr, read-out: MetAP2 Enzyme Assay 1 hr 50 nM.
Where [7] appears, read: 2 hr, read-out: MetAP2 Enzyme Assay 2 hr 50 nM.
Where [8] appears, read: 4 hr, read-out: MetAP2 Enzyme Assay 4 hr 50 nM.
Setting [9] is: diet-induced obese C57BL/6NTac mice, oral gavage, 1 mg/kg/day, 7 days.

As usually defined, the IC50 is the point on the concentration scale where inhibition reaches its midpoint. Low readings indicate higher potency, high ones lower potency.

T1 sequence (P50579 whole entry): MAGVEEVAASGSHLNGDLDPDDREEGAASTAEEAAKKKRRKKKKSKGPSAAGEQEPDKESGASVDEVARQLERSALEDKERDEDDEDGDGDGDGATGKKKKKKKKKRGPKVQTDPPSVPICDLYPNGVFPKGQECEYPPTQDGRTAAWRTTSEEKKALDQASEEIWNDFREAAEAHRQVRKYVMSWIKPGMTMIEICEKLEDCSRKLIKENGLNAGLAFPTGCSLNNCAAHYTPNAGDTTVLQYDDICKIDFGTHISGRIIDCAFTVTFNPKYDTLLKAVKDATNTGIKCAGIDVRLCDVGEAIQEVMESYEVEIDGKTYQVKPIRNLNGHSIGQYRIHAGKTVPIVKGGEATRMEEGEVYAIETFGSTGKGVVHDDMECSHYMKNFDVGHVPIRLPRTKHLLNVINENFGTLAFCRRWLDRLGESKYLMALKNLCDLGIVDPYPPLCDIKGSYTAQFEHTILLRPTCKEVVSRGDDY
T2 sequence (O08663 whole entry): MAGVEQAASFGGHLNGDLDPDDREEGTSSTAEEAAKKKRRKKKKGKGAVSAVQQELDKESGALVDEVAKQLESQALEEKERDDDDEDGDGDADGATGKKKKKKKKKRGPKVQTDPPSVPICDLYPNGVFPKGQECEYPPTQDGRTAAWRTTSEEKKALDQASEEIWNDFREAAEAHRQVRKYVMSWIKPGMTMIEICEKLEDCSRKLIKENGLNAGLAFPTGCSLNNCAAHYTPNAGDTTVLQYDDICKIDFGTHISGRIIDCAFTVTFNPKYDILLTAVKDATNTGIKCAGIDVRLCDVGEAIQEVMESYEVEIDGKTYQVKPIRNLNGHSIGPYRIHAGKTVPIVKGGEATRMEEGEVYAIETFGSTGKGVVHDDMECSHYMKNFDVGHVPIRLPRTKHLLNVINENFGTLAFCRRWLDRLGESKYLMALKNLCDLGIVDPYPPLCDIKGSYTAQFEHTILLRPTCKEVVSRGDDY

Regarding `CCCCCCCCCCS[C@@H]1CC[C@]2(CO2)[C@@H]([C@@]2(C)O[C@@H]2CC=C(C)C)[C@@H]1OC` [Example 18], the inhibition at 0.05 µM in assay [1] (setting [6]), in assay [1] (setting [7]) and in assay [1] (setting [8]) was 0% each time. Moreover, the change in vivo at 1 mg/kg in assay [2] (setting [9]) is 0%. The IC50 in assay [3] (in uM) is more than 1 µM.
As for `COC(=O)CCCCCCCCCO[C@@H]1CC[C@]2(CO2)[C@@H]([C@@]2(C)O[C@@H]2CC=C(C)C)[C@@H]1OC` [Example 19], the inhibition at 0.05 µM in assay [1] (setting [6]), in assay [1] (setting [7]) and in assay [1] (setting [8]) was 0% in each case. For the same compound, the change in vivo at 1 mg/kg in assay [2] (setting [9]) was -0.9%. The compound further yielded an IC50 in assay [3] (in uM) of more than 1 µM.
For `CCCCCCCCCC=C1CC[C@]2(CO2)[C@@H]([C@@]2(C)O[C@@H]2CC=C(C)C)[C@@H]1OC` [Example 20], the inhibition at 0.05 µM in assay [1] (setting [6]), in assay [1] (setting [7]) and in assay [1] (setting [8]) was 0% each time. In addition, the change in vivo at 1 mg/kg in assay [2] (po) was found to be 0.4%. In assay [3] (in uM), the IC50 is more than 1 µM.
On to `CO[C@@H]1[C@@H](F)CC[C@]2(CO2)[C@H]1[C@@]1(C)O[C@@H]1CC=C(C)C` [Example 23], for which the results for the inhibition at 0.05 µM in assay [1] (setting [6]), in assay [1] (setting [7]) and in assay [1] (setting [8]) were 23%, 28% and 27%, respectively. Besides, in assay [2] (setting [9]), the change in vivo at 1 mg/kg is -0.33%. This compound had an IC50 in assay [3] (cells printed in nM) of 0.01 to 0.1 µM.
`CCCC/C=C/C[C@H]1O[C@]1(C)[C@H]1[C@H](OC)C(=O)CC[C@]12CO2` [Example 25]: the figures for the inhibition at 0.05 µM in assay [1] (setting [6]), in assay [1] (setting [7]) and in assay [1] (setting [8]) were 19%, 40% and 40%, respectively. Also, the change in vivo at 1 mg/kg in assay [2] (po) came to 0.1%. The compound also returned an IC50 in assay [3] (cells printed in nM) of 0.01 to 0.1 µM.
For `CO[C@@H]1[C@H](OC(=O)CCCCCCCCC(=O)O[C@@H]2CC[C@]3(CO3)[C@@H]([C@@]3(C)O[C@@H]3CC=C(C)C)[C@@H]2OC)CC[C@]2(CO2)[C@H]1[C@@]1(C)O[C@@H]1CC=C(C)C` [Example 27], the inhibition at 0.05 µM in assay [1] (setting [8]) amounted to 48%. Also, the change in vivo at 1 mg/kg in assay [2] (po) is 4.4%. For the same compound, the IC50 in assay [3] (cells printed in nM) is 0.01 to 0.1 µM.
`CO[C@@H]1[C@H](OC(=O)NCCC2CCCN2C)CC[C@]2(CO2)[C@H]1[C@@]1(C)O[C@@H]1CC=C(C)C` (stereo partly drawn) [Example 29]: in assay [1] (setting [8]), the inhibition at 0.05 µM was found to be 63%. In addition, the change in vivo at 1 mg/kg in assay [2] (setting [9]) came out at 5.7%. Also, in assay [3] (cells printed in nM), the IC50 is less than 0.01 µM.
On to `CO[C@@H]1[C@H](OC(=O)NC2CN3CCC2CC3)CC[C@]2(CO2)[C@H]1[C@@]1(C)O[C@@H]1CC=C(C)C` (stereo partly drawn) [Example 30], for which the inhibition at 0.05 µM in assay [1] (setting [8]) is 30%. Moreover, in assay [2] (setting [9]), the change in vivo at 1 mg/kg is -0.9%. The compound further displayed an IC50 in assay [3] (cells printed in nM) of less than 0.01 µM.
The corresponding values for `CO[C@@H]1[C@H](OC(=O)N[C@@H](C(=O)NCCCN(C)C)C(C)C)CC[C@]2(CO2)[C@H]1[C@@]1(C)O[C@@H]1CC=C(C)C` [Example 32] are 54%, 0.3% and less than 0.01 µM.
The corresponding values for `CO[C@@H]1[C@H](OC(=O)N[C@@H](C(=O)NCCC2CCCN2C)C(C)C)CC[C@]2(CO2)[C@H]1[C@@]1(C)O[C@@H]1CC=C(C)C` (stereo partly drawn) [Example 33] are 43%, 2.1% and less than 0.01 µM.
With `CO[C@@H]1[C@H](OC(=O)/C=C/C=C/C=C/C=C/C(=O)O)CC[C@]2(CO2)[C@H]1[C@@]1(C)O[C@@H]1CC=C(C)C` [compound 201, fumagillin, reference compound], in assay [4], the “weight loss over 10 days of treatment” value is “robust weight loss”. In addition, the “inhibition of the enzyme (MetAP2) in the testes, by THX1 N-terminal peptide” value in assay [5] is “No inhibition”.
The corresponding values for `COC(=O)CCCCCCCCC(=O)O[C@@H]1CC[C@]2(CO2)[C@@H]([C@@]2(C)O[C@@H]2CC=C(C)C)[C@@H]1OC` [compound 205] are “robust weight loss” and “No inhibition”.
In the case of `CO[C@@H]1[C@H](OC(=O)CCCCCCCCC(=O)O)CC[C@]2(CO2)[C@H]1[C@@]1(C)O[C@@H]1CC=C(C)C` [compound 206], in assay [4], the “weight loss over 10 days of treatment” value is recorded as “robust weight loss”. Also, the “inhibition of the enzyme (MetAP2) in the testes, by THX1 N-terminal peptide” value in assay [5] is “No inhibition”.
The corresponding values for `CCCCCCCCCCC(=O)O[C@@H]1CC[C@]2(CO2)[C@@H]([C@@]2(C)O[C@@H]2CC=C(C)C)[C@@H]1OC` [compound 216] are “robust weight loss” and “No inhibition”.
